# System: patients with acute bronchitis
# Experiment: double blind, randomized, placebo-controlled clinical study, 14-day treatment of acute bronchitis
# Format: in vivo
# Protocol: A parallel group of patients was treated for 14 days correspondingly with placebo or cefuroxime.
compound,measurement,setting,value
CO/N=C(\C(=O)N[C@@H]1C(=O)N2C(C(=O)O)=C(COC(N)=O)CS[C@H]12)c1ccco1 [cefuroxime],patients still with a pathological ausculatory finding,after 7±2 treatment days,26.3%
same,patients who experienced a worsening of the symptoms (terminations because of a worsening of the acute bronchitis),after 7±2 treatment days,7.6%
same,patients with worsening of the acute bronchitis,after 14±2 treatment days,16.4%
same,"patients with worsening, times as many as in the Eucalyptus oil/orange oil group",after 14±2 treatment days,10 times
same,patients still with a pathological ausculatory finding (pathological respiratory sounds),after 14±2 days,7.6%
same,"general state of health, Eucalyptus oil/orange oil group versus cefuroxime group","human, in vivo",no differences worth mentioning

# Reference: US7087253B2 (AKH Arzneimittelkontor GmbH, priority 2002, dated 2006)
